Values joined by “and” are separate entries in the source; they are usually repeats but may differ in a detail not shown here. Equal values may be shown once. Read-outs that look alike come from different tables or passages of the source.

As usually defined, the IC50 is the concentration at which inhibition is half-maximal. For orientation: MRT means the average time that molecules of a dose stay in the body. Broadly, the Vd is a proportionality between amount in the body and measured concentration, not a real space. The clearance is a measure of how efficiently the substance is removed, as volume per time. Low readings indicate inefficient removal, high ones efficient removal. By bioavailability is commonly meant the share of a dose that reaches the circulation, judged against a reference dose that is usually intravenous. In general, Cmax refers to the maximum level reached in the sampled fluid or tissue. In general, Tmax refers to the time from dosing to the highest level.

One data set has as its target CYP3A4 (Homo sapiens (Human), UniProt P08684). Put plainly: CYP3A4 inhibition assay in pooled human liver microsomes. Particulars: NADPH, 37° C., read-out: CYP 3A4 Inhibition IC50. The format is in vitro ADME. As for the experimental part: (§1) The test compounds were incubated with pooled human liver microsomes at 37° C. in the presence of NADPH and appropriate concentrations of substrates specific for CYP2C9 and 3A4. The final assay concentrations of human liver microsomes and substrates, the initial substrate stock solution concentrations in DMSO, and the times used for the various isozyme incubations are summarized in Table 4.
120 μL of a mixture of human liver microsomes (HLM) in 50 mM potassium phosphate/5 mM MgCl2 buffer was added into all wells of row A in a 96-well plate. The concentration of microsomal protein was 2-fold the intended protein concentration for the particular isozyme assay recorded in Table 4. In addition, 80 μL of this human liver microsome preparation spiked with 1% DMSO was dispensed into all wells of rows B through H.
1.2 μL of each individual test compound in DMSO (10 mM) was added to the first 10 wells of row A (5 different test compounds each in duplicate). Additionally, 1.2 μL of the DMSO stock of the control inhibitor for the isozyme under study was added into the final two wells of row A to give a concentration two-fold above the highest final concentration. (See Table 5 for the final control inhibitor concentrations)
This process was repeated for rows D through G. After mixing, 40 μL was removed and discarded from the wells of row G.
The plate was covered and pre-incubated for 10 minutes in a 37° C. incubator. […]
(§2) Samples were analyzed by the LC-MS/MS method. Each metabolite (Table 6) derived from the particular substrate for each different CYP450 isoform was monitored. […]
(§3) AUCtest, AUCcontrol and AUCblank are the peak area count for the metabolite of the control in the presence of test article or positive inhibitor, the peak area count of metabolite of the control without test article, and peak area count observed in the microsome blank, respectively. […] The IC50 values were calculated using a 4-parameter fit in XLFit™ (IDBS Lid, Guildford, UK).

A short description of data set [1]: Intravenous/oral pharmacokinetic study in Sprague-Dawley rats. The format is in vivo. Particulars: rat, plasma, male Sprague-Dawley rats; for MRT: read-out: Rat PK MRT (converted); for half-life: read-out: Rat PK T1/2. As for the experimental part: An intravenous/oral pharmacokinetic study with the selected compounds was conducted in male Sprague-Dawley rats weighing between 0.24 and 0.36 kg. Blood samples were collected at predetermined time points and the corresponding plasma samples from the animals were analyzed for test compound concentrations using an LC-MS/MS method. The pharmacokinetic parameters were derived from the plasma concentration versus time curve.
Eight animals weighing between 0.24 and 0.36 kg were used for this study. Two animals were used for the i.v. dosing, whereas the later six were for oral dosing.
For i.v. dosing, a solution formulation of test compound was prepared in propylene glycol/N,N-dimethyl acetamide/EtOH (31.6/31.6/36.8) at 1 mg/mL and each animal received 1 mL/kg. For oral dosing, a the test compounds were suspended in 1% HPMC at 0.5 mg/mL and each animal received 10 mL/kg.
Animals were fasted overnight and examined prior to dosing and at the conclusion of the study. For intravenous dosing, blood (0.2 mL) was drawn at pre-dose and at 2, 5, 10, 15, and 30 minutes, 1, 2, 4, 6, and 8 hours post-dose. For oral dosing, blood (0.2 mL) was drawn at pre-dose and at 5, 15, and 30 minutes, 1, 1.5, 2, 4, 6, 8, and 24 hours post-dose. Blood was sampled from canulated animals and then placed into chilled polypropylene tubes containing sodium EDTA as the anticoagulant and kept on ice until centrifugation. Plasma was collected through centrifugation (Eppendorf Centriguge 5417R) at 12000 rpm and 4° C. for 6 minutes and stored at −20° C. until analysis.
Plasma samples (50 μL) were extracted with 150 μL acetonitrile containing the internal standard on a linear shaker for 10 min. The samples were centrifuged at 4450 RPM for 10 min at 4° C. (Allegra X-15R centrifuge, Beckman Coulter, Inc., Fullerton, Calif.). 80 μL of the resultant supernatant was transferred into new plate wells containing 80 μL 0.1% formic acid in water and thoroughly mixed.
Extracted samples prepared using the above procedure were separated by high-performance liquid chromatography using a Shimadzu (Kyoto, Japan) system equipped with two LC-10 AD pumps and a C-18 column (Waters Sunfire, 2×30 mm, 3.5 μm; 10 μl injection) using a mobile phase consisting of (A) 0.1% formic acid in water and (B) 0.1% formic acid in acetonitrile, at a flow rate of 0.35 mL/min. The gradient was 0-1.5 min 5% B, 1.5-2.5 min 5-95% B, 2.5-2.7 min 95% to 5% B, and 2.7-4.0 min 5% B. The HPLC elute was routed into an Applied Biosystems (Foster City, Calif.) Sciex API 3000 triple quadrupole mass spectrometer, operating in the Turbo Ionspray positive ionization MS/MS mode for analysis. Acquisition and integration were performed with Applied Biosystems-Sciex Analyst software (version 1.4.1). The calibration curve was obtained through a quadratic (i.v.) or linear (p.o.) regression and the calibration range was 4-5000 ng/mL and 2-5000 ng/mL for the i.v. and p.o. studies, respectively.
A total of eleven time points were obtained for each dosing route during the blood collection period. Descriptive pharmacokinetic parameters were determined from the plasma concentration-time curve by a standard non-compartmental analysis (Wagner, 1993) from each animal and dose route. • Half-life (T1/2): Terminal half-life. • Cmax: Maximum plasma concentration • AUC0-∞: Area under the plasma concentration-time curve from time of dosing extrapolated to infinity. • CL: Total body clearance. • MRT0-∞: Mean residence time from the time of dosing extrapolated to infinity • Vdss: Volume of distribution at steady state. • F: Bioavailability.
Pharmacokinetic analysis was performed by using XLFit® v.4.1 (ID Business Solutions Inc., Alameda, Calif.).

The target in the next data set is CCR2 (Homo sapiens (Human), UniProt P41597). The data set can be described thus: CCR2 chemotaxis assay (conventional migration assay, THP-1 cells, MCP-1). The format is cell-based.
A further data set in a line: in vivo. The settings on record: male, beagle, dog, plasma.
The nature of data set [2]: Pharmacokinetics and oral bioavailability in the beagle dog. Particulars: male beagle dog, oral 5 mg/kg vs i.v. 1 mg/kg.
Protocol: (§4) PK parameters were determined by non-compartmental analysis.
In the next data set the target is CYP2C9 (Homo sapiens (Human), UniProt P11712). The data set can be described thus: CYP2C9 inhibition assay in pooled human liver microsomes. The format is in vitro ADME. Particulars: NADPH, 37° C., diclofenac substrate, read-out: CYP 2C9 Inhibition IC50. As for the experimental part: as §1
120 μL of a mixture of human liver microsomes (HLM) in 50 mM potassium phosphate/5 mM MgCl2 buffer was added into all wells of row A in a 96-well plate. The concentration of microsomal protein was 2-fold the intended protein concentration for the particular isozyme assay recorded in Table 4. In addition, 80 μL of this human liver microsome preparation spiked with 1% DMSO was dispensed into all wells of rows B through H. […]
as §2, §3
A general note: Liver microsomes are vesicles of endoplasmic reticulum, rich in cytochrome P450 enzymes.

Where [3] appears, read: THP-1 cells, 0.1 nM MCP-1, read-out: IC50 in the CCR2 chemotaxis assay.

Sequence of CCR2 (P41597 other isoform, or with tags, fused parts or gaps isoform P41597-2): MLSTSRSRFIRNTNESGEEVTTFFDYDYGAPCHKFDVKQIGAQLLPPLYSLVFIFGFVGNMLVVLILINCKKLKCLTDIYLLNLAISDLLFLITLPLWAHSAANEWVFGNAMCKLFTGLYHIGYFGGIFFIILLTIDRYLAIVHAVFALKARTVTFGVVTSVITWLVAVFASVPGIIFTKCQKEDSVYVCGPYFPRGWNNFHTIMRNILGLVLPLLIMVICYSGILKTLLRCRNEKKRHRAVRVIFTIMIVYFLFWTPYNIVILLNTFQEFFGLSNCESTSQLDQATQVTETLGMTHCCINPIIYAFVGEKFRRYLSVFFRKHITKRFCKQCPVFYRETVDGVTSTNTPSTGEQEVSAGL
Sequence of CYP3A4 (P08684 whole entry): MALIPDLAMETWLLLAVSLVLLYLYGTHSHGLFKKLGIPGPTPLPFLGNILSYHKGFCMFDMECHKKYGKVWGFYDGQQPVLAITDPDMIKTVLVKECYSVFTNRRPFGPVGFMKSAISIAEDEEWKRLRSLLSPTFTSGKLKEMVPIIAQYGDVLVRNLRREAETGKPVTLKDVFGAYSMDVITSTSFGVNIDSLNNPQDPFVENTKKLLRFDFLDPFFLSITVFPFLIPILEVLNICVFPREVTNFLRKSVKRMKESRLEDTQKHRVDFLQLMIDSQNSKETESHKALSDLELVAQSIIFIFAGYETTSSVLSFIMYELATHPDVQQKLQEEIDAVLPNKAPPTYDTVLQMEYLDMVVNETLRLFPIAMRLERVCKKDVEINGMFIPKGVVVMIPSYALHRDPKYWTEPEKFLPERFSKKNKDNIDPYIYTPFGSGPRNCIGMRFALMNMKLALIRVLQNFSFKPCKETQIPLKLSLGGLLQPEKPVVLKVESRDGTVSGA
Sequence of CYP2C9 (P11712 whole entry): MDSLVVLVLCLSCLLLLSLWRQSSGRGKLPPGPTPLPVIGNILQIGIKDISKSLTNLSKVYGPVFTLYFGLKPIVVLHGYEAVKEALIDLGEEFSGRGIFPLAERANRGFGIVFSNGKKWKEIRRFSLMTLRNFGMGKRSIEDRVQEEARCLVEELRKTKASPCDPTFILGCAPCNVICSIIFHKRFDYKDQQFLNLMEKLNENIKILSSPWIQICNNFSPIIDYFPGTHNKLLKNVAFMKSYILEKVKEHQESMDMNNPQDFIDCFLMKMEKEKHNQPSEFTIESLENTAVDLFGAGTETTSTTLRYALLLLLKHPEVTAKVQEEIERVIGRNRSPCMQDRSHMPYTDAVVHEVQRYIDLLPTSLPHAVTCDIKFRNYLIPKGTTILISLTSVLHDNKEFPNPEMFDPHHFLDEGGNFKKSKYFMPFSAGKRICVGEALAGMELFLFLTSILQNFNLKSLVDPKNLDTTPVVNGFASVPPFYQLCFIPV
Protocol for CCR2: In vitro cell migration assays can be performed (but are not limited to this format) using the 96-well microchamber (called ChemoTX™). […] In this assay, CCR2-expressing cells (such as THP-1) are first incubated with a compound of interest, such as a possible CCR2 antagonist, respectively, at increasing concentrations. Typically, fifty thousand cells per well are used, but the amount can range from 10^3-10^6 cells per well.
THP-1 cells were obtained from the American Type Culture Collection (Manassas, Va.) and cultured in RPMI tissue culture medium supplemented with 10% fetal calf serum (FCS) in a humidified 5% CO2 incubator at 37° C. […] ChemoTX® chemotaxis microchambers were purchased from Neuro Probe (Gaithersburg, Md.). CyQUANT® cell proliferation kits were purchased from Molecular Probes (Eugene, Oreg.).
Conventional migration assay was used to determine the efficacy of potential receptor antagonists in blocking migration mediated through chemokines (such as CCR2). This assay was routinely performed using the ChemoTX® microchamber system with a 5-μm pore-sized polycarbonate membrane. To begin such an assay, chemokine expressing cells (such as THP-1 cells for CCR2 assay) were harvested by centrifugation of cell suspension at 1000 RPM on a GS-6R Beckman centrifuge. The cell pellet was resuspended in chemotaxis buffer (HBSS with 0.1% BSA) at 10×10^6 cells/mL for CCR2 assay. Test compounds at desired concentrations were prepared from 10 mM stock solutions by serial dilutions in chemotaxis buffer. An equal volume of cells and compounds were mixed and incubated at room temperature for 15 minutes. […] To quantify cells migrated across the membrane, 5 μL of 7× CyQUANT® solution was added to each well in the lower chamber, and the fluorescence signal measured on a Spectrafluor Plus fluorescence plate reader (TECAN, Durham, N.C.). The degree of inhibition was determined by comparing migration signals between compound-treated and untreated cells. […]
Protocol for in vivo: as §4

In the case of `COC1=C(C(=O)c2ncc(C)cc2NS(=O)(=O)c2ccc(Cl)c(C(F)(F)F)c2)C2C=CNC2N=C1` (stereo not shown), the IC50 on CYP3A4 stood at 3000 nM. For the same compound, in data set [1], the MRT is 0.367 h and the half-life was 0.317 h.

The compound `Cc1cnc(C(=O)c2ncnc3[nH]ccc23)c(NS(=O)(=O)c2ccc(Cl)c(C(F)(F)F)c2)c1` [Compound 5, 4-Chloro-N-[5-methyl-2-(7H-pyrrolo[2,3-d]pyrimidine-4-carbonyl)-pyridin-3-yl]-3-trifluoromethyl-benzenesulfonamide] returned an IC50 against CCR2 of approximately 5 nM. Besides, in the data set “in vivo” (iv, 1 mg/kg), the MRT stood at 7.2 h, the volume of distribution (Vd) worked out at 0.1 L/kg, the clearance amounted to 0.2 mL/min/kg and the half-life was 4.7 h. In “in vivo” (oral, 5 mg/kg), this compound registered a bioavailability of approximately 100%. Further, in “in vivo” (po, 5 mg/kg), the Cmax is 44400 ng/mL and ~59.5 µM; the Tmax worked out at 1.5 h. Besides, the oral bioavailability result in data set [2] was “about 100%”.

For the compound `Cc1cnc(C(=O)c2ccnc3[nH]ncc23)c(NS(=O)(=O)c2ccc(Cl)c(C(F)(F)F)c2)c1`, the IC50 on CYP3A4 was determined as 3000 nM. For the same compound, in data set [1], the MRT is 0.583 h.

Turning to `Cc1cnc(C(=O)c2ncnc3[nH]ccc23)c(NS(=O)(=O)c2ccc(Cl)c(C(F)(F)F)c2)c1` [drawing 76], the IC50 at CYP3A4 stood at 20000 nM. Also, the MRT in data set [1] is 2.25 h.

Regarding `O=C(c1ncc(Cl)cc1NS(=O)(=O)c1ccc(Cl)c(C(F)(F)F)c1)c1cncc2[nH]ccc12` [Compound 11, 4-Chloro-N-[5-chloro-2-(1H-pyrrolo[2,3-c]pyridine-4-carbonyl)-pyridin-3-yl]-3-trifluoromethyl-benzenesulfonamide], the IC50 on CCR2 (setting [3]) is less than 1000 nM.

Regarding `Cc1cnc(C(=O)c2ncnc3[nH]ccc23)c(NS(=O)(=O)c2ccc(Cl)c(C(F)(F)F)c2)c1` [drawing 78], in data set [1], the half-life is 2.68 h.

Consider `O=C(C1=CC=NC2NC=CC12)c1ncc(Cl)cc1NS(=O)(=O)c1ccc(Cl)c(C(F)(F)F)c1` (stereo not shown), for which, in data set [1], the MRT is 0.35 h and the half-life came to 0.7 h. Besides, the IC50 on CYP2C9 stood at 3000 nM.

Turning to `O=C(c1ncc(Cl)cc1NS(=O)(=O)c1ccc(Cl)c(C(F)(F)F)c1)c1ncnc2[nH]ccc12`, in data set [1], the MRT is 1.13 h and the half-life came to 2.12 h. For the same compound, on CYP2C9, the IC50 amounted to 15000 nM.

Regarding `Cc1cnc(C(=O)c2cncc3[nH]ccc23)c(NS(=O)(=O)c2ccc(Cl)c(Cl)c2)c1` [Compound 12, 3,4-Dichloro-N-[5-methyl-2-(1H-pyrrolo[2,3-c]pyridine-4-carbonyl)-pyridin-3-yl]-benzenesulfonamide], the IC50 at CCR2 (setting [3]) was less than 1000 nM.

These data come from patent US9394307B2, “Fused heteroaryl pyridyl and phenyl benzenesuflonamides as CCR2 modulators for the treatment of inflammation” (ChemoCentryx, Inc., priority 2007, dated 2016).
